These results are taken from patent US5348956A, “Substituted cyclopropylamino-1,3,5-triazines” (UCB S.A., priority 1991, dated 1994).

For series [1], the system named is bronchospasm induced by serotonin. As to the kind of experiment: bronchospasmolytic activity (Konzett and Roessler), bronchospasm induced by serotonin. The series is classed as in vivo, Dunkin-Hartley guinea-pig. As to conditions: Cavia porcellus; intravenous; serotonin-induced bronchospasm; read-out: Doses (ID50), Serotonin. Summed up: (§1)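 Anesthetized (urethane), curarized, ventilated Dunkin-Hartley guinea-pigs with endotracheal pressure recorded after histamine, serotonin or acetylcholine challenge. Compound given i.v. 2 min before spasmogen, then in 3–4 increasing cumulative doses at 15-min intervals; six animals per compound and spasmogen.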

The test system of series [2] is plantar edema induced by immune complexes. As to the kind of experiment: "reverse passive Arthus" (RPA) test, anti-inflammatory and anti-edema activity. The series is classed as in vivo, Sprague-Dawley rat. As to conditions: Rattus norvegicus, intravenous. Summed up: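 Rats received subplantar anti-ovalbumin serum in the right hind paw plus i.v. ovalbumin 1 ml/kg (25 mg/ml). Compound was given i.v. 30 s before induction, at ≥3 doses, 6 rats/dose. Paw volume was measured by plethysmometry at 3 and 5 h, and ID30 (μmole/kg) is the dose reducing edema 30% versus controls.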

The test system of series [3] is bronchospasm induced by acetylcholine. Description: bronchospasmolytic activity (Konzett and Roessler), bronchospasm induced by acetylcholine. The class given is in vivo, Dunkin-Hartley guinea-pig. The settings on record: Cavia porcellus; intravenous; acetylcholine-induced bronchospasm; read-out: Doses (ID50), Acetylcholine. A digest of the protocol: as §1
The nature of series [4]: toxicity, Irwin's test. The class given is in vivo. The settings on record: i.p.; death of two animals out of three within 48 hours. As to the method: Progressive doses of the compound to be tested are administered intraperitoneally to groups of three mice until the lethal dose is reached (dose which causes the death of two animals out of three within 48 hours).
The subject of series [5] is anaphylactic release of histamine, guinea-pig lung sections. As to the kind of experiment: inhibition of the anaphylactic release of histamine (proper effect). The series is classed as cell-based, Dunkin-Hartley guinea-pigs. As to conditions: Cavia porcellus, in vitro, read-out: Minimum inhibitory dose (MID).
Series [6] relates to longitudinal muscles of the ileum contracted by histamine. As to the kind of experiment: potentiation of the myorelaxing effect of isoprenaline on the ileum. The series is classed as cell-based, Dunkin-Hartley guinea-pigs. The settings on record: with isoprenaline 10^-7 mole/l; histamine 3.2 μmoles/l. A digest of the protocol:
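Isolated ileal longitudinal muscle contracted by repeated histamine injections; test compound injected after wash, and the next histamine contraction compared with the mean of three preceding control contractions to give % inhibition. Potentiation cycle: % inhibition by compound alone at a given dose, then with isoprenaline co-injected, repeated per dose.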

For series [7], the system named is amnesia induced by scopolamine. Description: multiple-trial passive avoidance: mnemic retention, amnesia induced by scopolamine. As to conditions: 3.25 mg/kg i.p. + 0.5 mg scopolamine.
Experimental: To this end, the method of multiple-trial passive avoidance has been used. […] The test is carried out on male Sprague-Dawley rats (160-200 g). which are kept in standard cages throughout the experiment. The apparatus used is a transparent square cage with 35 cm sides and 25 cm high, fitted with a grid floor which can be electrified. A rubber insulating mat (10×17 cm) is placed on the floor in one of the corners of the cage.
Each animal is subjected to four tests at times 0, 4, 24 and 28 hours. In the first test (time 0), the animal is placed on the rubber mat and the time which it takes to decide to leave this position to explore the cage is recorded. After 20 seconds of exploration, the rat receives an electric shock (3 seconds duration) in the paws, causing an escape reaction. The rat is immediately removed from the apparatus and replaced in its original cage. In the course of the three subsequent tests (times: 4, 24 and 28 hours), the animal is replaced on the rubber mat and the time taken to leave this position is recorded. As soon as the four paws of the animal rest on the grid, it receives an electric shock and is removed immediately from the apparatus.
At the start of the experiment, the rats are divided into 4 homogeneous groups of 15 animals. Thirty minutes before each test, each group of animals is subjected to a predetermined treatment:
Groups 1 and 2 are used in the first experiment (learning) and groups 3 and 4 in the second experiment (mnemic retention).
The differences found are analyzed statistically by the Mann-Whitney method.

Like-named read-outs stand apart in the source and are kept apart here.

On to `C1CC1Nc1nc(C2CC2)nc(N2CC3CCC(C2)O3)n1` [Compound 16], for which the figures for the ED50 in series [1] and in series [3] were 0.009 µmol/kg and 0.05 µmol/kg, respectively. Further, the ED30 in series [2] (3 hours after induction of the Arthus reaction, read-out: Dose (ID30), 3 hours) worked out at 1.5 µmol/kg; in series [2] (5 hours after induction of the Arthus reaction, read-out: Dose (ID30), 5 hours), 2 µmol/kg. The Lethal dose in series [4] is 194 mg/kg. In addition, the minimal effective concentration in series [5] was 0.1 µM. The “Minimum potentiating dose (MPD)” value in series [6] came to 0.032 µmol/L. Moreover, the “Period of remaining on the mat, group 4” value in series [7] (4 hours) was found to be 35.1 s; in series [7] (24 hours), 118.5 s; in series [7] (28 hours) it was 101.1 s; in series [7] (time 0), 11.3 s.
